Data: patent publication US12134599B2, “Solid forms” (River 3 Renal Corp., priority 2021, dated 2024)

How the values were obtained:
[1] = Dynamic vapor sorption (DVS) analysis; type: physicochemical
[2] = physchem; conditions: 25 °C, water, thermodynamic from solid
Procedure: About 5 mg of crystalline Form E was weighed in 2 mL glass vials. 20 μL aliquots of each solvent were added to dissolve the compound at 25° C. Vortex and sonication were applied to assist dissolution. The maximum volume of each solvent added was 1 mL.

[3] = between about 0 to about 90% relative humidity (RH) at 25° C.

Compound | DVS total mass change [1, 3] | other results
O=C(N[C@@H]1CCCC[C@H]1O)c1cnc(OCC(F)(F)F)c(-c2ccc(Cl)c(Cl)c2)c1 [Form 2, 5-(3,4-dichlorophenyl)-N-((1R,2R)-2-hydroxycyclohexyl)-6-(2,2,2-trifluoroethoxy)nicotinamide] | about 2.1 wt. % | –
O=C(N[C@@H]1CCCC[C@H]1O)c1cnc(OCC(F)(F)F)c(-c2ccc(Cl)c(Cl)c2)c1 [Form A, 5-(3,4-dichlorophenyl)-N-((1R,2R)-2-hydroxycyclohexyl)-6-(2,2,2-trifluoroethoxy)nicotinamide] | about 1.8 wt. % | –
O=C(N[C@@H]1CCCC[C@H]1O)c1cnc(OCC(F)(F)F)c(-c2ccc(Cl)c(Cl)c2)c1 [Form B, 5-(3,4-dichlorophenyl)-N-((1R,2R)-2-hydroxycyclohexyl)-6-(2,2,2-trifluoroethoxy)nicotinamide] | about 0.3 wt. % | –
O=C(N[C@@H]1CCCC[C@H]1O)c1cnc(OCC(F)(F)F)c(-c2ccc(Cl)c(Cl)c2)c1 [Form D, 5-(3,4-dichlorophenyl)-N-((1R,2R)-2-hydroxycyclohexyl)-6-(2,2,2-trifluoroethoxy)nicotinamide] | about 20 wt. % | –
O=C(N[C@@H]1CCCC[C@H]1O)c1cnc(OCC(F)(F)F)c(-c2ccc(Cl)c(Cl)c2)c1 [Form E, 5-(3,4-dichlorophenyl)-N-((1R,2R)-2-hydroxycyclohexyl)-6-(2,2,2-trifluoroethoxy)nicotinamide] | about 0.3 wt. % | solubility [2]: < 5 mg/mL
O=C(N[C@@H]1CCCC[C@H]1O)c1cnc(OCC(F)(F)F)c(-c2ccc(Cl)c(Cl)c2)c1 [Form H, 5-(3,4-dichlorophenyl)-N-((1R,2R)-2-hydroxycyclohexyl)-6-(2,2,2-trifluoroethoxy)nicotinamide] | – | DVS total mass change ([1]; between about 0 to about 70% relative humidity (RH) at 25° C.): about 2.5 wt. %; DVS total mass change ([1]; between about 70 to about 90% relative humidity (RH) at 25° C.): about 25 wt. %
O=C(N[C@@H]1CCCC[C@H]1O)c1cnc(OCC(F)(F)F)c(-c2ccc(Cl)c(Cl)c2)c1 [Form I, 5-(3,4-dichlorophenyl)-N-((1R,2R)-2-hydroxycyclohexyl)-6-(2,2,2-trifluoroethoxy)nicotinamide] | about 10 wt. % | –
